Measurements taken from US9498505B2, “Embelia concinna extract comprising flavonoids in cosmetic and pharmaceutical compositions” (BAYER CONSUMER CARE AG, priority 2012, dated 2016).
Where “and” joins values, the source holds several entries; their conditions need not be identical. Identical values can stand only once.

Assays:
[1] = test system: human neutrophils; assay: LTB4 release by neutrophils stimulated with opsonised zymosan (ELISA); type: cell-based
Protocol: (§1) The purpose of this study is the evaluation of the dry Embelia extract on the production of LTB4 (leucotriens B4) and PGE-2 (prostaglandin E-2) in human neutrophils. Venous blood from healthy donors was collected into tubes containing anticoagulant and sedimented with Dextran (Dextran T500). The supernatant was layered on Ficoll-Hypaque (density 1,077) and centrifuged at 400 g for 20 min. The cell pellet was washed in Tyrode (in mM: NaCl 137; KCl 2.6; glucose 5.6; HEPES 4.2; pH 7.4). Contaminating red blood corpuscules were lyzed. The cells were resuspended at 2.106 cells/ml in the Tyrode buffer supplemented with CaCl2 and MgCl2 (1.3 and 1 mM, respectively). Cells (2.106 cells/ml) were incubated at 37° C. in the presence or absence of the products to be tested during 15 min and then stimulated with opsonised zymosan (1 mg/ml) during 10 min. LTB4 assay was performed using a kit ELISA (Thermo Fisher ref. EHL LTB4). The quantity of LTB4 was expressed in pg/ml. PGE2 assay was performed using a kit ELISA (Assay designs ref 900-001 and SPIBIO ref 514010). The quantity of PGE2 was expressed in pg/ml. Data represent the means of values measured in one supernatant (non stimulated cells) or three supernatants (stimulated cells). Each measurement was assessed in duplicate. The means of the data were compared to the control condition (Student's t test-comparison of means—statistical significance at 95% if p<0.05* and at 99% if p<0.01**). The percentage of inhibition was calculated as follows: % inhibition=100×[(LTB4 treated with ECC (stimulated)/LTB4 control (stimulated)×100]

[2] = test system: human neutrophils; assay: PGE2 release by neutrophils stimulated with opsonised zymosan (ELISA); type: cell-based; details: for PGE2: Indomethacin 1 μM
Protocol: as §1, with “p<0.01**).” for “p<0.01**). The percentage of inhibition was calculated as follows: % inhibition=100×[(LTB4 treated with ECC (stimulated)/LTB4 control (stimulated)×100]”

[3] = test system: human basophils (KU812 cell line); assay: Histamine release from KU812 basophils after CP48/80-induced degranulation (ELISA); type: cell-based
Protocol: FIG. 1: Evaluation by Elisa assay of histamine release after induced basophils degranulation. Protocol: in vitro test on human basophils (KU812 cell line), pre-treatment with Embelia extract for 20 min, stimulation with CP48/80 (10 μg/ml) for 20 min, tested vs cromoglycate (10 nM) as standard reference. Test was performed on liquid Embelia extract according to example 1 to measure its activity on degranulation of human basophils (KU812 cell line) stimulated with CP48/80. Effects on degranulation were evaluated by measuring histamine release after stimulation. Cells were cultured at 37° C., 5% CO2 and culture medium concerned EBSS supplemented with CaCl2 1.8 mM, MgCl2 0.8 mM and Bovine serum albumine (BSA) 0.1%. KU812 cells were then seeded in culture medium containing or not (control) the test compound or the reference (cromoglycate at 10 mM) and cells were pre-incubated for 20 minutes. Cells were then stimulated or not (non-stimulated control) with histamine release inducer CP48/80 at 10 μg/ml and incubated for 20 minutes. All experimental conditions were performed in n=3. At the end of incubation, the quantity of histamine in culture supernatants was measured using an ELISA kit according to the supplier's instructions. The inter-group comparisons were performed by Student's t-test for data management. Results are expressed in % according to the following formulas: [formula] [formula]

[4] = test system: mast cells (Peritoneal cells from Wistar rat including ~50% mast cells); assay: Histamine release from mast cells after CP48/80-induced degranulation (ELISA); type: cell-based
Protocol: FIG. 2: Evaluation by Elisa assay of histamine release after induced mast cells degranulation. Protocol: in vitro test on mast murine cells, peritoneal cells from Wistar rat including ˜50% mast cells, re-treatment with Embelia extract for 15 min, stimulation with CP48/80 (10 μg/ml) for 20 min, tested vs cromoglycate (10 nM) as standard reference. Test was performed with liquid Embelia extract according to example 1 comprising 7.3% dry matter to measure its activity on degranulation of mast cells (Peritoneal cells from Wistar rat including ˜50% mast cells) stimulated with CP48/80. Effects on degranulation were evaluated by measuring histamine release after stimulation. Cells were cultured at 37° C., 5% CO2 and culture medium concerned EBSS supplemented with CaCl2 1.8 mM, MgCl2 0.8 mM and Bovine serum albumine (BSA) 0.1%. Mast cells were seeded in culture medium containing or not containing (control) the test compound or the reference (cromoglycate at 10 mM) and cells were pre-incubated for 20 minutes. Cells were then stimulated or not stimulated (non-stimulation control) with histamine release inducer CP48/80 at 10 μg/ml and incubated for 20 minutes. All experimental conditions were performed in n=3. At the end of incubation, the quantity of histamine in culture supernatants was measured using an ELISA kit according to the supplier's instructions. The inter-group comparisons were performed by Student's t-test for data management. Results are expressed in % according to the following formulas: [formula]

[5] = test system: sensory neurons from dorsal root ganglia; assay: Substance P release induced by capsaicin in sensory neurons (ELISA); type: cell-based, newborn Wistar rat
Protocol: (§2) FIG. 3: Evaluation by Elisa assay of substance P release. Protocol: in vitro test on sensory neurons, sensory neurons from dorsal root ganglia of newborn Wistar rat, pre-treatment with Embelia extract for 30 min, stimulation with capsaicin (0.3 μM) for 30 min, tested vs capsazepine (30 μM) as standard reference.
(§3) Test was performed with liquid Embelia extract according to example 1 to measure its activity on release of substance P or CGRP induced by capsaicin in sensory neurons models. Cells were isolated from dorsal root ganglia of newborn Wistar rat. Cells were cultured at 37° C., 5% CO2 and culture medium concerned DMEM-Ham F12 supplemented with N2 complement 1%, antibiotics, L-glutamine 2 mM, nerve growth factor beta 20 ng/ml, neutrophin 5 ng/ml.
(§4) Sensory neurons were then seeded in culture medium containing or not containing (control) the test compound or the reference (capsazepine at 30 μM) and cells were pre-incubated for 30 minutes. Cells were then stimulated or not stimulated (non-stimulation control) with capsaicin (a pungent and irritating agent from hot chili pepper) at 0.3 μM and incubated for 30 minutes. All experimental conditions were performed in n=3. At the end of incubation, the quantity of neuromediators (Substance P or CGRP) in culture supernatants was measured using respective ELISA kit according to the supplier's instructions. The inter-group comparisons were performed by Student's t-test for data management.
(§5) Results are expressed in % according to the following formulas: […]

[6] = test system: sensory neurons from dorsal root ganglia; assay: CGRP release induced by capsaicin in sensory neurons (ELISA); type: cell-based, newborn Wistar rat
Protocol: as §2, with “FIG. 4:” for “FIG. 3:”, “of CGRP” for “of substance P”, “neurons, Sensory” for “neurons, sensory”
as §3, §4, §5

[7] = test system: sensory neurons from dorsal root ganglia; assay: Viability (MTT) of sensory neurons; type: cell-based, newborn Wistar rat; details: Capsazepine 30 μM
Protocol: A preliminary cytotoxicity test to select doses for further assay was performed with viability test (MMT assay).

[8] = Cromoglycate 10 mM, CP48/80 at 10 μg/ml
[9] = Capsazepine 30 μM, capsaicin (0.3 μM)
[10] = Rattus norvegicus, Neuron, Capsazepine 30 μM, capsaicin (0.3 μM)
[11] = individual values, Capsazepine 30 μM, capsaicin (0.3 μM)

Q: Which inhibition at 10 µg/mL ([1]; Homo sapiens, Neutrophil, Boswellic acid 10 μg/ml, positive control) does the source give for `C[C@H]1[C@H](C)CC[C@]2(C)CC[C@]3(C)C(=CC[C@@H]4[C@@]5(C)CC[C@@H](O)[C@](C)(C(=O)O)[C@@H]5CC[C@]43C)[C@H]12` [Boswellic acid] here?
A: 45%

Q: Which “inhibition of PGE2 release” value ([2]; Indometacin 1 μM, positive control) does the source give for `COc1ccc2c(c1)c(CC(=O)O)c(C)n2C(=O)c1ccc(Cl)cc1` [Indomethacin] here?
A: 51%

Q: What about the “PGE2” value ([2]; (NS) not stimulated) of the same compound?
A: 60 pg/mL

Q: And the “PGE2” value ([2]; (S) stimulated with opsonised zymosan)?
A: 77.0 pg/mL

Q: For `Cc1ncc([N+](=O)[O-])n1CCO` [Metronidazole], which inhibition at 5 µg/mL ([1]; Homo sapiens, Neutrophil, metronidazole 5 μg/ml, positive control) is on record?
A: 100%

Q: And the “LTB4” value ([1]; Metronidazole (10 μg/ml), (S) stimulated with opsonised zymosan)?
A: 530 pg/mL

Q: For `O=C(O)c1cc(=O)c2c(OCC(O)COc3cccc4oc(C(=O)O)cc(=O)c34)cccc2o1` [Cromoglycate], which “Inhibition (%)” value [3, 8] is on record?
A: 42%

Q: What about the “Mean Histamine” value [3, 8] of the same compound?
A: 29.5 nM

Q: What about the “Stimulated Control (%)” value [3, 8] of the same compound?
A: 71%

Q: What about the “effect on CP48/80-stimulated histamine release” value ([3]; cromoglycate 10 mM) of the same compound?
A: significantly inhibited this effect

Q: What about the “Histamine” value ([3]; individual values, Cromoglycate 10 mM, CP48/80 at 10 μg/ml) of the same compound?
A: 32.3 nM and 27.0 nM and 29.0 nM

Q: What about the “Inhibition (%)” value [4, 8] of the same compound?
A: 81%

Q: What about the “Mean Histamine” value [4, 8] of the same compound?
A: 11.7 µM

Q: And the “Stimulated Control (%)” value [4, 8]?
A: 20%

Q: And the “effect on CP48/80-stimulated histamine release” value ([4]; cromoglycate 10 mM)?
A: significantly inhibited this effect

Q: `Oc1cc2c(cc1O)CN(C(=S)NCCc1ccc(Cl)cc1)CCC2` [Capsazepine] was tested. Which “% Stimulated Control (%)” value [5, 9] did it give?
A: 9%

Q: What about the “Mean Substance P” value [5, 9] of the same compound?
A: 23 pg/mL

Q: What about the inhibition at 30 µM [5, 10] of the same compound?
A: 99%

Q: What about the “effect on capsaicin-stimulated substance P release” value ([5]; capsazepine 30 μM) of the same compound?
A: significantly inhibited this effect

Q: And the “Substance P” value [5, 11]?
A: 23 pg/mL

Q: What about the “Mean CGRP” value [6, 9] of the same compound?
A: 642 pg/mL

Q: And the “Stimulated Control (%)” value [6, 9]?
A: 39%

Q: And the inhibition at 30 µM [6, 10]?
A: 64%

Q: What about the “effect on capsaicin-stimulated CGRP release” value ([6]; capsazepine 30 μM) of the same compound?
A: significantly inhibited this effect

Q: What about the “CGRP” value [6, 11] of the same compound?
A: 671 pg/mL and 698 pg/mL and 557 pg/mL

Q: What about the “Viability (MTT) % Stimulated Control” value ([7]; Table 6 (substance P experiment)) of the same compound?
A: 96%

Q: What about the “Viability (MTT) Stimulated Control (%)” value ([7]; Table 7 (CGRP experiment)) of the same compound?
A: 114%
